Assay results reported in ChEMBL document CHEMBL1671688, “Raltegravir penetration in seminal plasma of healthy volunteers” (Antimicrob Agents Chemother, 2010).

How the values were obtained:
Assay type in all cases: ADME, organism-based
[1] = Drug level in semen of healthy human at […] administered twice daily measured after 2 to 4 hrs by HPLC; conditions: in vivo
[2] = Drug level in semen of healthy human at […] administered twice daily measured 5 hrs post dosing by HPLC; conditions: male, read-out: Drug uptake
Blood = assay: Drug level in blood of healthy human at […] administered twice daily measured after 2 to 4 hrs by HPLC; conditions: in vivo
[3] = Drug level in blood of healthy human at […] administered twice daily measured on day 5 by HPLC; conditions: read-out: Drug uptake
[4] = Drug level in semen of healthy human at […] administered twice daily measured on day 5 by HPLC; conditions: male, read-out: Drug uptake
[5] = Ratio of drug level in semen to blood in healthy human at […] administered twice daily measured 5 hrs post dosing by HPLC; conditions: male
[6] = Ratio of drug level in semen to blood in healthy human at […] administered twice daily measured after 2 to 4 hrs by HPLC; conditions: male
[7] = Ratio of drug level in semen to blood in healthy human at […] administered twice daily measured on day 5 by HPLC; conditions: male

SMILES: Cc1nnc(C(=O)NC(C)(C)c2nc(C(=O)NCc3ccc(F)cc3)c(O)c(=O)n2C)o1 [RALTEGRAVIR]
- Drug uptake [1]: 953 ng/mL
- concentration at 5 h [2]: 345 ng/mL
- Drug uptake (Blood): 651 ng/mL
- concentration at 5 day [3]: 51 ng/mL
- concentration at 5 day [4]: 212 ng/mL
- Kp at 5 h [5]: 1.42
- Kp [6]: 1.62
- Kp at 5 day [7]: 3.78
